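Exposure lasted 48 hours, with cells grown in 96-well plates and compounds tested at five concentrations. GI50: concentration for 50% inhibition of growth.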 Active and inactive are the calls of the source. Rule as the data show it: active = GI50 up to about 1.1 µM and inactive = higher.
Key:
Assay in all cases: growth of human tumour cells (NCI), 48 h
OVCAR-5 = tested on: OVCAR-5
MOLT-4 = tested on: MOLT-4
Malme-3M = tested on: Malme-3M
HOP-62 = tested on: HOP-62
SN12C = tested on: SN12C
COLO 205 = tested on: COLO 205
OVCAR-3 = tested on: OVCAR-3
HCC 2998 = tested on: HCC 2998
LOX IMVI = tested on: LOX IMVI
MDA-N = tested on: MDA-N
HCT-15 = tested on: HCT-15
SR = tested on: SR
A498 = tested on: A498
NCI-H522 = tested on: NCI-H522
HCT-116 = tested on: HCT-116
DU-145 = tested on: DU-145
MCF7 = tested on: MCF7
SF-295 = tested on: SF-295
BT-549 = tested on: BT-549
HOP-92 = tested on: HOP-92

Structure (SMILES)	GI50 (OVCAR-5)	GI50 (MOLT-4)	GI50 (Malme-3M)	GI50 (HOP-62)	GI50 (SN12C)	GI50 (COLO 205)	GI50 (OVCAR-3)	GI50 (HCC 2998)	GI50 (LOX IMVI)	GI50 (MDA-N)	GI50 (HCT-15) [µM]	GI50 (SR)	GI50 (A498)	GI50 (NCI-H522)	GI50 (HCT-116)	GI50 (DU-145)	GI50 (MCF7)	GI50 (SF-295)	GI50 (BT-549)	GI50 (HOP-92)
CSc1c([S+](C)[O-])c2ccccc2n1C (stereo not drawn)	> 100 µM (inactive)	> 100 µM (inactive)	> 100 µM (inactive)	> 100 µM (inactive)	> 100 µM (inactive)	> 100 µM (inactive)	> 100 µM (inactive)	> 100 µM (inactive)	> 100 µM (inactive)	> 100 µM (inactive)	> 100	> 100 µM (inactive)	> 100 µM (inactive)	0.0142 µM (active)	> 100 µM (inactive)	> 100 µM (inactive)	> 100 µM (inactive)	> 100 µM (inactive)		
Cc1ccc2c(=O)cc(Cc3cccs3)[nH]c2n1	> 100 µM (inactive)	> 100 µM (inactive)	> 100 µM (inactive)	> 100 µM (inactive)	> 100 µM (inactive)	> 100 µM (inactive)	> 100 µM (inactive)		> 100 µM (inactive)		> 100			> 100 µM (inactive)	> 100 µM (inactive)	> 100 µM (inactive)	> 100 µM (inactive)	> 100 µM (inactive)	> 100 µM (inactive)	
CCOC(=O)C(=CNC(=S)c1ccncc1)C(=O)OCC	> 100 µM (inactive)	> 100 µM (inactive)	> 100 µM (inactive)	> 100 µM (inactive)	> 100 µM (inactive)	> 100 µM (inactive)	76.2 µM (inactive)	> 100 µM (inactive)	> 100 µM (inactive)	> 100 µM (inactive)	> 100	> 100 µM (inactive)	> 100 µM (inactive)	> 100 µM (inactive)	> 100 µM (inactive)	> 100 µM (inactive)	> 100 µM (inactive)	> 100 µM (inactive)		> 100 µM (inactive)
CC(=O)CC(C)(C)NC(=O)[C@@]1(O)CC[C@H]2[C@@H]3CCC4=CC(=O)CC[C@@H]4[C@H]3CC[C@@]21C	> 100 µM (inactive)	56.4 µM (inactive)	> 100 µM (inactive)	> 100 µM (inactive)	> 100 µM (inactive)	> 100 µM (inactive)	> 100 µM (inactive)	> 100 µM (inactive)	> 100 µM (inactive)	> 100 µM (inactive)	> 100	> 100 µM (inactive)	> 100 µM (inactive)	> 100 µM (inactive)	> 100 µM (inactive)	> 100 µM (inactive)		> 100 µM (inactive)	> 100 µM (inactive)	> 100 µM (inactive)
OC(CN(CCCl)CCCl)C(O)C(O)C(O)CN(CCCl)CCCl (stereo not drawn)	> 100 µM (inactive)		85.7 µM (inactive)	> 100 µM (inactive)	23.2 µM (inactive)	84.7 µM (inactive)	> 100 µM (inactive)	> 100 µM (inactive)	27.4 µM (inactive)		> 100	0.624 µM (active)	> 100 µM (inactive)	47.3 µM (inactive)	> 100 µM (inactive)	71.9 µM (inactive)	29 µM (inactive)		> 100 µM (inactive)	> 100 µM (inactive)
CNC(=S)c1nnsc1N	> 100 µM (inactive)	> 100 µM (inactive)	> 100 µM (inactive)	> 100 µM (inactive)	> 100 µM (inactive)	0.043 µM (active)	0.479 µM (active)	29.5 µM (inactive)	> 100 µM (inactive)	> 100 µM (inactive)	> 100		87.3 µM (inactive)	9.14 µM (inactive)	66.4 µM (inactive)	> 100 µM (inactive)	0.918 µM (active)	> 100 µM (inactive)	> 100 µM (inactive)	
CCOC(=O)C(Cc1ccc2c(c1)CCC2)(Cc1ccc2c(c1)CCC2)C(=O)OCC	> 100 µM (inactive)	23.6 µM (inactive)	21.1 µM (inactive)	> 100 µM (inactive)			26.1 µM (inactive)	49 µM (inactive)	71.1 µM (inactive)	46 µM (inactive)	61.7	19 µM (inactive)	> 100 µM (inactive)	29.9 µM (inactive)	31.7 µM (inactive)	> 100 µM (inactive)	52.6 µM (inactive)	80.7 µM (inactive)		26.9 µM (inactive)
CC1OC(OC2C(CO)OC(O[C@H]3CC[C@@]4(C)C(=CC[C@H]5[C@@H]6C[C@@H]7O[C@](O)(CC[C@@H](C)COC8OC(CO)C(O)C(O)C8O)[C@@H](C)[C@@H]7[C@@]6(C)CC[C@@H]54)C3)C(OC3OC(C)C(O)C(O)C3O)C2O)C(O)C(O)C1O (stereo partly drawn)	2.52 µM (inactive)	1.58 µM (inactive)	1.89 µM (inactive)	2.16 µM (inactive)	2.2 µM (inactive)	2.56 µM (inactive)	12.9 µM (inactive)	2.9 µM (inactive)	1.56 µM (inactive)	2.89 µM (inactive)	1.89	3.23 µM (inactive)	> 100 µM (inactive)	2.07 µM (inactive)	2.08 µM (inactive)	2.3 µM (inactive)		3.91 µM (inactive)	3.88 µM (inactive)	
COC(=O)C1CCC(=O)N1C(c1ccc(OC)cc1)c1cc(OC)c(OC)c(OC)c1 (stereo not drawn)	0.592 µM (active)	0.39 µM (active)		0.378 µM (active)	0.531 µM (active)	0.292 µM (active)	0.261 µM (active)	0.249 µM (active)	0.356 µM (active)	0.104 µM (active)	0.381	0.18 µM (active)	0.705 µM (active)	0.047 µM (active)	0.324 µM (active)	0.306 µM (active)	0.307 µM (active)	0.0762 µM (active)		> 100 µM (inactive)
C=C(C)COc1cc(/N=C(/S)OC(C)C)ccc1Cl	15.7 µM (inactive)	12.1 µM (inactive)			16.1 µM (inactive)	16.3 µM (inactive)	15.8 µM (inactive)	15.5 µM (inactive)	16.3 µM (inactive)	16.7 µM (inactive)	15.7			14.9 µM (inactive)	15.2 µM (inactive)	16.7 µM (inactive)	15.4 µM (inactive)	15.5 µM (inactive)	10.8 µM (inactive)	13.6 µM (inactive)
COc1ccc(Cn2c3c(cc(OS(=O)(=O)C(F)(F)F)c2=O)Cc2ccccc2-3)cc1	20.3 µM (inactive)	12 µM (inactive)	16.2 µM (inactive)	21.9 µM (inactive)	16.9 µM (inactive)	9.95 µM (inactive)	9.53 µM (inactive)	11.7 µM (inactive)	10 µM (inactive)	12.9 µM (inactive)	3.22	4.36 µM (inactive)	> 50 µM (inactive)	22 µM (inactive)	14.9 µM (inactive)	20.2 µM (inactive)		18.9 µM (inactive)	24.9 µM (inactive)	22.3 µM (inactive)
O=C(c1ccc(Cl)cc1)N(C(=O)N1CCCCC1)c1ccccc1	> 100 µM (inactive)	18.9 µM (inactive)	37.3 µM (inactive)		> 100 µM (inactive)	85.9 µM (inactive)	> 100 µM (inactive)		68.1 µM (inactive)	> 100 µM (inactive)	79.4		> 100 µM (inactive)		> 100 µM (inactive)	> 100 µM (inactive)	65.5 µM (inactive)		48.3 µM (inactive)	
